Test results from ChEMBL document CHEMBL1201862, “PubChem BioAssay data set” (2004).
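Dose response: 5 concentrations. Exposure: 48 h. Format: 96-well plates. Endpoint: linear interpolation; highest concentration if not reached. At the GI50, growth is halved.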 Active and inactive are the calls of the source. No stated cut-off is given here; in the data, active = GI50 up to about 1.1 µM and inactive = higher.

How the values were obtained:
Assay in all cases: NCI tumour cell line growth inhibition, 48 h
NCI-H23 = system: NCI-H23
UO-31 = system: UO-31
OVCAR-4 = system: OVCAR-4
Malme-3M = system: Malme-3M
TK-10 = system: TK-10
SW-620 = system: SW-620
NCI-H460 = system: NCI-H460
RPMI-8226 = system: RPMI-8226
SNB-19 = system: SNB-19
CAKI-1 = system: CAKI-1
HL-60 = system: HL-60
SK-OV-3 = system: SK-OV-3
DU-145 = system: DU-145
NCI/ADR-RES = system: NCI/ADR-RES
SNB-75 = system: SNB-75
HCC 2998 = system: HCC 2998

| Compound | GI50 (NCI-H23) | GI50 (UO-31) | GI50 (OVCAR-4) | GI50 (Malme-3M) | GI50 (TK-10) | GI50 (SW-620) | GI50 (NCI-H460) | GI50 (RPMI-8226) | GI50 (SNB-19) | GI50 (CAKI-1) | GI50 (HL-60) | GI50 (SK-OV-3) | GI50 (DU-145) | GI50 (NCI/ADR-RES) | GI50 (SNB-75) | GI50 (HCC 2998) |
| --- | --- | --- | --- | --- | --- | --- | --- | --- | --- | --- | --- | --- | --- | --- | --- | --- |
| COc1ncc(C=C(C#N)C#N)c(OC)n1 | 31.3 µM (inactive) | 21.1 µM (inactive) | 48.9 µM (inactive) | 35.2 µM (inactive) | 37.3 µM (inactive) | 26.2 µM (inactive) | 41 µM (inactive) | 24 µM (inactive) | 52.6 µM (inactive) | 36.1 µM (inactive) | 16.7 µM (inactive) | > 100 µM (inactive) | 52.5 µM (inactive) | 22.6 µM (inactive) | > 100 µM (inactive) | – |
| CCOc1ccc2ccccc2c1NC1=NCCO1 | 28.8 µM (inactive) | 21 µM (inactive) | 26.8 µM (inactive) | 39.5 µM (inactive) | > 100 µM (inactive) | 46.1 µM (inactive) | 12.7 µM (inactive) | 19.5 µM (inactive) | 29.6 µM (inactive) | – | 19.9 µM (inactive) | 39.5 µM (inactive) | > 100 µM (inactive) | 70.3 µM (inactive) | 34.6 µM (inactive) | 38.5 µM (inactive) |
| CCOC(=O)/C=C/C1=C(Br)[C@@]2(C)CC[C@@H]3c4ccc(O)cc4CC[C@H]3[C@@H]2C1 | 13.7 µM (inactive) | 16.8 µM (inactive) | 14.5 µM (inactive) | 12 µM (inactive) | 17.9 µM (inactive) | 13.7 µM (inactive) | 14.7 µM (inactive) | 2.17 µM (inactive) | 16.6 µM (inactive) | 16.4 µM (inactive) | 17.9 µM (inactive) | 15.4 µM (inactive) | 6.87 µM (inactive) | 14.7 µM (inactive) | – | 14.8 µM (inactive) |
| C[C@@H]1C[C@](O)([C@@H](C)Cl)C(=O)O[C@@H]2CCN3CC=C(COC(=O)[C@]1(C)O)[C@H]23 | > 10 µM (inactive) | > 10 µM (inactive) | > 100 µM (inactive) | – | > 100 µM (inactive) | > 100 µM (inactive) | > 10 µM (inactive) | > 100 µM (inactive) | > 10 µM (inactive) | > 100 µM (inactive) | > 100 µM (inactive) | > 100 µM (inactive) | > 100 µM (inactive) | > 100 µM (inactive) | > 100 µM (inactive) | > 100 µM (inactive) |
| Oc1c(N2CCCCC2)cc(-c2cc(N3CCCCC3)c(O)c3ccccc23)c2ccccc12 | 24.9 µM (inactive) | > 100 µM (inactive) | 17.1 µM (inactive) | 12 µM (inactive) | > 100 µM (inactive) | 29.3 µM (inactive) | 43 µM (inactive) | 29.6 µM (inactive) | 98.4 µM (inactive) | > 100 µM (inactive) | 27.7 µM (inactive) | > 100 µM (inactive) | 23.4 µM (inactive) | 34.2 µM (inactive) | – | 33.5 µM (inactive) |
| COc1ccc(OC)c2c1C=CC(Br)=CC2 | 0.259 µM (active) | 0.332 µM (active) | 0.4 µM (active) | 0.145 µM (active) | 0.292 µM (active) | 0.234 µM (active) | 0.211 µM (active) | 0.162 µM (active) | 0.611 µM (active) | 0.269 µM (active) | – | 0.0582 µM (active) | 0.975 µM (active) | 0.296 µM (active) | – | 0.195 µM (active) |
| O=[N+]([O-])C1=Cc2c(O)ccc(O)c2C2c3ccccc3NC12 (stereo not drawn) | 4.24 µM (inactive) | 5.33 µM (inactive) | 16 µM (inactive) | – | 16.1 µM (inactive) | 9.1 µM (inactive) | 12.8 µM (inactive) | 10.4 µM (inactive) | 12.2 µM (inactive) | 4.36 µM (inactive) | 5.85 µM (inactive) | 29 µM (inactive) | 24.7 µM (inactive) | 7.43 µM (inactive) | 22.4 µM (inactive) | 7.52 µM (inactive) |
| Cn1c(=O)[nH]c2[nH]c3ccccc3c2c1=O | > 100 µM (inactive) | > 100 µM (inactive) | – | > 100 µM (inactive) | > 100 µM (inactive) | > 100 µM (inactive) | – | 92 µM (inactive) | > 100 µM (inactive) | > 100 µM (inactive) | > 100 µM (inactive) | > 100 µM (inactive) | > 100 µM (inactive) | > 100 µM (inactive) | 32.1 µM (inactive) | > 100 µM (inactive) |
| COc1c(C)c(OC)c2c(c1O)[C@@H]1[C@@H]3Cc4c(OC)c(C)c(OC)c(O)c4[C@H](CNC(=O)c4ccc5ccccc5n4)N3[C@@H](C#N)[C@H](C2)N1C | 0.000459 µM (active) | 0.00227 µM (active) | 0.00217 µM (active) | 0.000162 µM (active) | 0.000444 µM (active) | 0.00033 µM (active) | 0.00224 µM (active) | 0.000324 µM (active) | 0.00569 µM (active) | 0.00401 µM (active) | 0.000363 µM (active) | – | 0.00206 µM (active) | 0.0101 µM (active) | 0.00262 µM (active) | 0.00014 µM (active) |
| O=C(c1ccccc1)N1CCC(Nc2cccnc2)O1 (stereo not drawn) | > 100 µM (inactive) | > 100 µM (inactive) | – | 60.3 µM (inactive) | > 100 µM (inactive) | > 100 µM (inactive) | > 100 µM (inactive) | – | > 100 µM (inactive) | – | > 100 µM (inactive) | > 100 µM (inactive) | > 100 µM (inactive) | > 100 µM (inactive) | – | 50.8 µM (inactive) |
| CC1C2(C)OC(=N)C(C#N)(C(C)O2)C1(C#N)C#N (stereo not drawn) | 28.8 µM (inactive) | 42.9 µM (inactive) | – | 25 µM (inactive) | 36.8 µM (inactive) | 16.6 µM (inactive) | 19.6 µM (inactive) | – | > 10 µM (inactive) | 13.6 µM (inactive) | 14.1 µM (inactive) | > 100 µM (inactive) | 25.7 µM (inactive) | 77.1 µM (inactive) | > 100 µM (inactive) | 20.4 µM (inactive) |
| CC(Cc1ccccc1)N(C)Cc1nc(C2CCC([N+](=O)[O-])O2)no1 (stereo not drawn) | 5.18 µM (inactive) | 7.29 µM (inactive) | 8.47 µM (inactive) | 11.9 µM (inactive) | 13.5 µM (inactive) | 3.1 µM (inactive) | – | 14.8 µM (inactive) | 12.2 µM (inactive) | – | 6.49 µM (inactive) | 24.5 µM (inactive) | 12.4 µM (inactive) | 11.9 µM (inactive) | 10.3 µM (inactive) | 4.17 µM (inactive) |
| O=C(O)c1cccc(/N=N/c2c(S(=O)(=O)O)ccc3c2C(=O)c2ccccc2C3=O)c1O | > 100 µM (inactive) | > 100 µM (inactive) | > 100 µM (inactive) | 54.6 µM (inactive) | > 100 µM (inactive) | > 100 µM (inactive) | > 100 µM (inactive) | > 100 µM (inactive) | > 100 µM (inactive) | > 100 µM (inactive) | > 100 µM (inactive) | > 100 µM (inactive) | > 100 µM (inactive) | > 100 µM (inactive) | > 100 µM (inactive) | – |
| C[C@H](CCC(=O)NCCS(=O)(=O)O)[C@H]1CC[C@H]2[C@@H]3[C@H](O)C[C@@H]4C[C@H](O)CC[C@]4(C)[C@H]3CC[C@]12C | > 100 µM (inactive) | > 100 µM (inactive) | > 100 µM (inactive) | > 100 µM (inactive) | > 100 µM (inactive) | > 100 µM (inactive) | > 100 µM (inactive) | > 100 µM (inactive) | > 100 µM (inactive) | > 100 µM (inactive) | > 100 µM (inactive) | > 100 µM (inactive) | > 100 µM (inactive) | 45.9 µM (inactive) | – | > 100 µM (inactive) |
| COc1ccc(/C=C2/CCS(=O)(=O)c3ccc(C)cc3C2=O)cc1OC | 12.5 µM (inactive) | 7.48 µM (inactive) | 11.3 µM (inactive) | – | 13.6 µM (inactive) | 22.8 µM (inactive) | 7.74 µM (inactive) | 11.7 µM (inactive) | 14.1 µM (inactive) | 17.2 µM (inactive) | 10.4 µM (inactive) | 21.6 µM (inactive) | 3.73 µM (inactive) | 11.8 µM (inactive) | 12 µM (inactive) | 6.47 µM (inactive) |
| CCCCCCCCCCCC/C=C\CC[C@@H](O)[C@H](O)CC[C@H](O)[C@@H]1CC[C@@H](CCCCCCCC2=C[C@H](C)OC2=O)O1 [GIGANTRIONENIN] | 0.11 µM (active) | 1.71 µM (inactive) | 10.8 µM (inactive) | 13.7 µM (inactive) | 2.17 µM (inactive) | 3.35 µM (inactive) | 2.91 µM (inactive) | 2.65 µM (inactive) | 1.83 µM (inactive) | 15.8 µM (inactive) | 2.17 µM (inactive) | – | 3.66 µM (inactive) | 1.24 µM (inactive) | 7.66 µM (inactive) | 17.3 µM (inactive) |
| COc1nc(N)nc2c1ncn2C1CC(O)C(CO)O1 (stereo not drawn) | > 100 µM (inactive) | > 100 µM (inactive) | > 100 µM (inactive) | > 100 µM (inactive) | > 100 µM (inactive) | > 100 µM (inactive) | > 100 µM (inactive) | > 100 µM (inactive) | > 100 µM (inactive) | > 100 µM (inactive) | > 100 µM (inactive) | > 100 µM (inactive) | > 100 µM (inactive) | > 100 µM (inactive) | > 100 µM (inactive) | – |
| CCN(CC)CCNc1c(OC)cc(C)c2sc3ccccc3c(=O)c12 | 14.5 µM (inactive) | 6.32 µM (inactive) | 5.3 µM (inactive) | 2.13 µM (inactive) | 8.59 µM (inactive) | 5.35 µM (inactive) | 4.5 µM (inactive) | 1.3 µM (inactive) | 12.7 µM (inactive) | 7.96 µM (inactive) | 5.45 µM (inactive) | 13.9 µM (inactive) | 11.9 µM (inactive) | 5.27 µM (inactive) | 12.9 µM (inactive) | – |
